{"source": "patent US20230263786A1", "about": "“MODULATION OF DRUG-DRUG INTERACTIONS OF VADADUSTAT” (Akebia Therapeutics, Inc., priority 2020, published 2023)", "key": {"[1]": {"target": "human PHD1 (Homo sapiens, UniProt Q96KS0)", "sequence (Q96KS0 whole entry)": "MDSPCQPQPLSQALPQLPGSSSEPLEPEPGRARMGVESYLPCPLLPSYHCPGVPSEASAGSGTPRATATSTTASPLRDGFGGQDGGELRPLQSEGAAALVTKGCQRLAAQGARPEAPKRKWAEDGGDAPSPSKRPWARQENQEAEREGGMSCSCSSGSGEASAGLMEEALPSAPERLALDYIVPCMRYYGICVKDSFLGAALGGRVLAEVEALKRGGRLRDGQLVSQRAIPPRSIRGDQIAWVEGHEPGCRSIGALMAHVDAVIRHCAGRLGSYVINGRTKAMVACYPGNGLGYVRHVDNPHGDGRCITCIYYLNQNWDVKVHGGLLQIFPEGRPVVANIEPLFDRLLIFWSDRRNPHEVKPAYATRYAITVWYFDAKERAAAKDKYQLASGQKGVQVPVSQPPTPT", "assay": "PHD inhibitory action, PHD1", "format": "biochemical", "conditions": "in vitro"}, "[2]": {"target": "human PHD3 (Homo sapiens, UniProt Q9H6Z9)", "sequence (Q9H6Z9 whole entry)": "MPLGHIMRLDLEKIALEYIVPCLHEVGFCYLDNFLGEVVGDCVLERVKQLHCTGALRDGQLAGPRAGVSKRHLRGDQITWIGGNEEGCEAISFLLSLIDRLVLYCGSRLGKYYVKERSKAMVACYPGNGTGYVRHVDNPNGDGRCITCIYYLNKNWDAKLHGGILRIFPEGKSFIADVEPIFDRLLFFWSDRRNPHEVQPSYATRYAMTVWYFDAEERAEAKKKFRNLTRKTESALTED", "assay": "PHD inhibitory action, PHD3", "format": "biochemical", "conditions": "in vitro"}, "[3]": {"target": "CYP2C9 (Homo sapiens, UniProt P11712)", "sequence (P11712 whole entry)": "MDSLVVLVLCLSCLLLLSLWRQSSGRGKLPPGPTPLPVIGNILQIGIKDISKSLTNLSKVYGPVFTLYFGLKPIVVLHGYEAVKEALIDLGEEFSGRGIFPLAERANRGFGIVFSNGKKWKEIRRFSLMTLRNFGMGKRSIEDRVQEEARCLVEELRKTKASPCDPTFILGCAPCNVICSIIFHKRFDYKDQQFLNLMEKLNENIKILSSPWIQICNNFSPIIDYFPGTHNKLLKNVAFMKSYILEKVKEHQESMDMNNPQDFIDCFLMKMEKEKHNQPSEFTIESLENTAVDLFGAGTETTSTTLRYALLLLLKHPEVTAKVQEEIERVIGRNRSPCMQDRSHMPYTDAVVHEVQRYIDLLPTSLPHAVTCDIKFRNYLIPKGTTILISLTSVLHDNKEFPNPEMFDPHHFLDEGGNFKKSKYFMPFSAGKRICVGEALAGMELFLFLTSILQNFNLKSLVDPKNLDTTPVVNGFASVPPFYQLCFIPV", "assay": "CYP2C9 inhibition in vitro", "format": "in vitro ADME"}, "[4]": {"assay": "Phase 1 oral iron interaction study, Cohort 1 (after meal): sodium ferrous citrate, ferric citrate hydrate", "format": "in vivo, human", "conditions": "for AUC(0-inf) / AUC(0-t) / Cmax / half-life: male, human, plasma, oral; for AUC(0-inf): read-out: AUC(0-inf), LS geometric mean; for AUC(0-t): read-out: AUC(0-last), LS geometric mean; for Cmax: read-out: Cmax, LS geometric mean; for half-life: read-out: t1/2, LS geometric mean (converted)", "from_the_text": "(§1) The study included 3 periods as follow: • Screening: performed within 4 weeks before the day of administration of the study drug. • Evaluation period: Cohort 1 was confined to the study site for 10-night, 11-day. Cohort 2 and Cohort 3 were confined to the study site for 7 nights and 8 days. • Post-administration tests: performed 3 days after administration of the last dose of the study drug.\nIn Cohort 1, 21 subjects were further randomized into 3 groups (7 subjects per group) and the evaluation period was divided into 3 periods during the study:\n(§2) Administration of vadadustat tablets alone: after fasting for at least 10 hours, subjects would eat breakfast over a period of 10 minutes, then immediately after finishing the meal (5 minutes after finishing the meal), 1 vadadustat tablet (150 mg) would be taken orally with 200 mL of water (extra water may be drunk if more is needed when taking the tablet, and the extra volume would be recorded). After breakfast, subjects would fast until the end of the collection of blood samples at 4 hours after administration of the study drug. Subjects would eat lunch over a period of 20 minutes after blood samples were collected at 4 hours after administration of the study drug. After lunch, subjects would fast until dinner, when they would eat dinner over a period of 20 minutes at 10 hours after administration of the study drug. Subjects would fast from dinner until breakfast the next morning.\nas §2, with “and sodium ferrous citrate:” for “alone:”, “mg) and 4 tablets of sodium ferrous citrate (containing 200 mg of iron)” for “mg)”, “tablets,” for “tablet,”\nAdministration of vadadustat tablets and ferric citrate hydrate: after fasting for at least 10 hours, subjects would eat breakfast over a period of 10 minutes, then immediately after finishing the meal (5 minutes after finishing the meal), 1 vadadustat tablet (150 mg) and 8 tablets of ferric citrate hydrate (containing 2000 mg of ferric citrate) would be taken orally with 200 mL of water (extra water may be drunk if more is needed when taking the tablets, and the extra volume will be recorded). After breakfast, subjects would fast until the end of the collection of blood samples at 4 hours after administration of the study drug. After collection of blood samples at 4 hours after administration of the study drug, subjects would eat lunch over a period of 20 minutes, then immediately after finishing the meal, 8 tablets of ferric citrate hydrate (containing 2000 mg of ferric citrate) would be taken orally with 200 mL of water (extra water may be drunk if more is needed when taking the tablet, and the extra volume would be recorded). Subjects would fast from lunch to before dinner, and at 10 hours after administration of the study drug, subjects will eat dinner over a period of 20 minutes, then immediately after finishing the meal, 8 tablets of ferric citrate hydrate (containing 2000 mg of ferric citrate) would be taken orally with 200 mL of water (extra water may be drunk if more is needed when taking the tablets, and the extra volume would be recorded). Subjects would fast from dinner until breakfast the next morning."}, "[5]": {"assay": "Phase 1 oral iron interaction study, Cohort 2 (before meal): sucroferric oxyhydroxide", "format": "in vivo, human", "conditions": "for AUC(0-inf) / AUC(0-t) / Cmax / half-life: male, human, plasma, oral; for AUC(0-inf): read-out: AUC(0-inf), LS geometric mean; for AUC(0-t): read-out: AUC(0-last), LS geometric mean; for Cmax: read-out: Cmax, LS geometric mean; for half-life: read-out: t1/2, LS geometric mean (converted)", "from_the_text": "as §1\nIn Cohort 2, 20 subjects were further randomized into 2 groups (10 subjects per group) and the evaluation period was divided into 2 periods during the study:\nas §2, with “10 hours and immediately before eating” for “10 hours, subjects would eat”, “breakfast” for “breakfast over a period of 10 minutes, then immediately after finishing the meal”, “minutes before starting” for “minutes after finishing”, “mg) will” for “mg) would”, “of water, then breakfast would be eaten over a period of 10 minutes” for “of water”\nAdministration of vadadustat tablets and sucroferric oxyhydroxide: after fasting for at least 10 hours and immediately before eating breakfast (5 minutes before starting the meal), subjects would chew and swallow 2 tablets of sucroferric oxyhydroxide (containing 1000 mg of iron), then 1 vadadustat tablet (150 mg) would be taken orally with 200 mL of water, then breakfast would be eaten over a period of 10 minutes (extra water may be drunk if more is needed when taking the tablets, and the extra volume would be recorded). After breakfast, subjects would fast until the end of the collection of blood samples at 4 hours after administration of the study drug. After blood samples were collected at 4 hours after administration of the study drug and immediately before lunch, subjects would chew and swallow 2 tablets of sucroferric oxyhydroxide (containing 1000 mg of iron), then eat lunch over a period of 20 minutes. After lunch, subjects will fast until dinner, and immediately before dinner at 10 hours after administration of the study drug, chew and swallow 2 tablets of sucroferric oxyhydroxide (containing 1000 mg of iron), then eat dinner over a period of 20 minutes. Subjects would fast from dinner until breakfast the next morning."}, "[6]": {"assay": "Phase I furosemide interaction study", "format": "in vivo, human", "conditions": "furosemide 40 mg and vadadustat 600 mg once daily", "procedure": "The study included 3 periods as follow: a 28-day screening period, 7-21 day in clinic period, and a 30-day follow up period post last dose.\nOn Days 3 to 6, subjects received vadadustat 600 mg (once daily)."}, "[7]": {"conditions": "150 mg with ferric citrate hydrate (2000 mg ferric citrate)"}, "[8]": {"conditions": "150 mg with sodium ferrous citrate (200 mg iron)"}, "[9]": {"conditions": "150 mg, Compound 1 150 mg alone"}, "[10]": {"conditions": "150 mg with sucroferric oxyhydroxide (1000 mg iron), before meal"}}}
{"smiles": "O=C(O)CNC(=O)c1ncc(-c2cccc(Cl)c2)cc1O", "note": "[Compound 1, {[5-(3-chlorophenyl)-3-hydroxypyridine-2-carbonyl]amino}acetic acid]", "values": [{"measurement": "IC50", "setting": "[1]", "value": 15.4, "unit": "nM"}, {"measurement": "IC50", "setting": "[2]", "value": 7.63, "unit": "nM"}, {"measurement": "inhibitory effect on CYP2C9", "setting": "[3]", "value": "inhibitory effect"}, {"measurement": "Kel, LS geometric mean", "setting": "[4]; [7]", "value": 0.16, "unit": "h⁻¹"}, {"measurement": "Kel, LS geometric mean", "setting": "[4]; [8]", "value": 0.13, "unit": "h⁻¹"}, {"measurement": "Kel, LS geometric mean", "setting": "[4]; Compound 1 150 mg alone", "value": 0.13, "unit": "h⁻¹"}, {"measurement": "AUC(0-inf)", "setting": "[4]; [7]", "value": 32400, "unit": "ng·h/mL"}, {"measurement": "AUC(0-t)", "setting": "[4]; [7]", "value": 31100, "unit": "ng·h/mL"}, {"measurement": "Cmax", "setting": "[4]; [7]", "value": 5180, "unit": "ng/mL"}, {"measurement": "half-life", "setting": "[4]; [7]", "value": 4.26, "unit": "h"}, {"measurement": "AUC(0-inf)", "setting": "[4]; [8]", "value": 46600, "unit": "ng·h/mL"}, {"measurement": "AUC(0-t)", "setting": "[4]; [8]", "value": 44400, "unit": "ng·h/mL"}, {"measurement": "Cmax", "setting": "[4]; [8]", "value": 6960, "unit": "ng/mL"}, {"measurement": "half-life", "setting": "[4]; [8]", "value": 5.34, "unit": "h"}, {"measurement": "AUC(0-inf)", "setting": "[4]; [9]", "value": 104000, "unit": "ng·h/mL"}, {"measurement": "AUC(0-t)", "setting": "[4]; [9]", "value": 99200, "unit": "ng·h/mL"}, {"measurement": "Cmax", "setting": "[4]; [9]", "value": 14300, "unit": "ng/mL"}, {"measurement": "half-life", "setting": "[4]; [9]", "value": 5.32, "unit": "h"}, {"measurement": "Kel, LS geometric mean", "setting": "[5]; [10]", "value": 0.16, "unit": "h⁻¹"}, {"measurement": "Kel, LS geometric mean", "setting": "[5]; Compound 1 150 mg alone, before meal", "value": 0.13, "unit": "h⁻¹"}, {"measurement": "AUC(0-inf)", "setting": "[5]; 150 mg", "value": 99500, "unit": "ng·h/mL"}, {"measurement": "AUC(0-t)", "setting": "[5]; 150 mg", "value": 95700, "unit": "ng·h/mL"}, {"measurement": "Cmax", "setting": "[5]; 150 mg", "value": 15200, "unit": "ng/mL"}, {"measurement": "half-life", "setting": "[5]; 150 mg", "value": 5.17, "unit": "h"}, {"measurement": "AUC(0-inf)", "setting": "[5]; [10]", "value": 45700, "unit": "ng·h/mL"}, {"measurement": "AUC(0-t)", "setting": "[5]; [10]", "value": 44500, "unit": "ng·h/mL"}, {"measurement": "Cmax", "setting": "[5]; [10]", "value": 8810, "unit": "ng/mL"}, {"measurement": "half-life", "setting": "[5]; [10]", "value": 4.33, "unit": "h"}, {"measurement": "serious TEAEs", "setting": "[6]", "value": "No serious TEAEs"}]}
